Source: patent US4906666A, “Hydroxamic acids and pharmaceutical compositions containing them, and anti-allergic use thereof” (Boehringer Mannheim GmbH, priority 1986, dated 1990)

Experiments:
[1] = system: passively sensitized strip of pulmonary parenchyma (guinea pig); test: Inhibition of the antigen-induced constriction on the passively sensitized strip of pulmonary parenchyma, Superfusion; format: cell-based; conditions: Cavia porcellus, concentration 20 μM
Excerpt: (§1) The inhibiting action of the compounds according to the invention was expressed as a percentage reduction of the constriction amplitude of the "specimens with the test substance" in proportion to the "untreated control constrictions."

[2] = system: passively sensitized strip of pulmonary parenchyma (guinea pig); test: Inhibition of antigen-caused constriction of passively sensitized guinea pig pulmonary parenchyma strips in vitro (Organ Bath); format: cell-based, Pirbright-White guinea pigs; conditions: concentration 5 μg/ml, 20 min preincubation at 37° C., ovalbumin constriction; for inhibition at 5 µg/mL: Cavia porcellus, read-out: Inhibition (%) of the antigen-induced constriction, Organ Bath
Excerpt: Activity of the inventive compounds was shown by the following testing in vitro. […] For this study of the inventive compounds, a measurement was made of the inhibition of the antigen-caused constriction of passively sensitized strips of guinea pig lung parenchyma, as described herewith:
Pirbright-White guinea pigs were stunned by a blow to the neck and bled. The lungs were flushed largely free of blood in situ with Krebs' buffer, pH 7.4.
Then the lung was removed, cut into strips (approx. 20×4×4 mm) and the strips were passively sensitized for one hour at room temperature with a 1:50 dilution of a homologous anti-ovalbumin antiserum and then washed once with Krebs' buffer.
The antiserum had previously been produced as described by Davies et al, (Quantitative studies on anaphylaxis in guinea pigs passively sensitized with homologous antibody. Inter. Arch. Allergy 41, 648-654 (1971)) in guinea pigs of the same strain by the repeated injection of ovalbumin (2×crystallized) with the addition of complete Freund's adjuvant.
Until it was used, the antiserum was stored undiluted at -18° C.
Then the lung strips were suspended singly in 10-milliliter water baths with a bias weight of 1.2 g on an isometric measuring receptable.
Then the baths were filled with Krebs' buffer and continually gassed at 37°° C. with O2 (95%) and CO2 (5%).
The constrictions of the lung strips were recorded through an amplifier on a plotter.
After a 30-minute habituating phase, histamine control spasms were produced in order to establish the reactivity of the lung specimens, washed, then the test substance was preincubated for 20 minutes at 37° C., and then the ovalbumin constriction was produced.
as §1

Compound | inhibition at 20 µM [1] | also measured
CCCc1c(OCCCSCC(=O)N(C)O)ccc(C(C)=O)c1O [Example 1, N-Hydroxy-N-methyl-S-[3-(4-acetyl-3-hydroxy-2-propylphenoxy)-propyl]-thioacetamide] | 39% | 
CCCCCc1cccc(OCCCSCCC(=O)N(C)O)c1 [Example 2b, N--hydroxy-N--methyl-S--[3-(3-pentylphenoxy)-propyl]-3-thiopropionic acid amide] | 58% | 
CCCc1c(OCCCCSCCC(=O)N(C)O)ccc(C(C)=O)c1O [Example 2c, N--hydroxy-N--methyl-S--[4-(4-acetyl-3-hydroxy-2-propyl-phenoxy)-butyl]-3-thio-propionic acid amide] | 72% | 
CCCc1c(OCCCCSCC(=O)N(C)O)ccc(C(C)=O)c1O [Example 2f, N--hydroxy-N--methyl-S--[4-(4-acetyl-3-hydroxy-2-propyl-phenoxy)-butyl]-thioacetamide] | 48% | 
CCCc1c(OCC#CCSCCC(=O)N(C)O)ccc(C(C)=O)c1O [Example 2g, N--hydroxy-N--methyl-S--[4-(acetyl-3-hydroxy-2-propyl-phenoxy)-but-2-ynyl]-3-thiopropionic acid amide] |  | Inhibition (%) of the antigen-induced constriction, Organ Bath [2]: 67%
CCCc1c(OCCCSCCC(=O)N(C)O)ccc(C(C)=O)c1O [Example 2i, N--hydroxy-N--methyl-S--[3-(4-acetyl-3-hydroxy-2-propyl-phenoxy)-propyl]-3-thio-propionic acid amide] | 63% | inhibition at 5 µg/mL [2]: 36%
CCCCCC(O)c1cccc(OCCCSCCCC(=O)N(C)O)c1 (stereo not shown) [Example 2l, N--hydroxy-N--methyl-S--[3-(3-{1-hydroxyhexyl}-phenoxy)-propyl]-4-thiobutyric acid amide] | 44% | 
CCCCCC(O)c1cccc(OCC(O)CSCCCC(=O)N(C)O)c1 (stereo not shown) [Example 2m, N--hydroxy-N--methyl-S--[3-(3-{1-hydroxyhexyl}-phenoxy)-2-hydroxypropyl]-4-thiobutyric acid amide] | 29% | 
CCCCCC(O)c1cccc(OCCCCSCCC(=O)N(C)O)c1 (stereo not shown) [Example 2n, N--hydroxy-N--methyl-S--[4-(3-{1-hydroxyhexyl}-phenoxy)-butyl]-3-thiopropronic acid amide] | 33% | 
CCCCCC(O)c1cccc(OCC=CCSCCC(=O)N(C)O)c1 (stereo not shown) [Example 2o, N--hydroxy-N--methyl-S--[4-(3-{1-hydroxyhexyl}-phenoxy)-but-2-enyl]-3-thiopropionic acid amide] | 42% | 
CCCc1c(OCCCSCCC(=O)ONC2CCCCC2)ccc(C(C)=O)c1O [Example 2t, O--[S--(3-{4-acetyl-3-hydroxy-2-propylphenoxy}-propyl)-3-thiopropionyl]-cyclohexyl-hydroxylamine] | 15% | 
CCCCCC(O)c1cccc(OCCCSCCCC(=O)Nc2nn[nH]n2)c1 (stereo not shown) [Example 4c, N--[(1H)-tetrazol-5-yl]-S--[3-(3-{1-hydroxyhexyl}-phenoxy)-propyl]-4-thiobutyric acid amide] | 29% | 
CCCCCC(O)c1cccc(OCC(O)CSCCCC(=O)Nc2nn[nH]n2)c1 (stereo not shown) [Example 4d] | 83% | 
CCCCCC(O)c1cccc(OCCCCSCCC(=O)Nc2nn[nH]n2)c1 (stereo not shown) [Example 4e, N--[(1H)-tetrazol-5-yl]-S--[4-(3-{1-hydroxyhexyl}-phenoxy)-butyl]-3-thiopropionic acid amide] | 73% | 
CCCCCC(O)c1cccc(OCC=CCSCCC(=O)Nc2nn[nH]n2)c1 (stereo not shown) [Example 4f, N--[(1H)-tetrazol-5-yl]-S--[4-(3-{1-hydroxyhexyl}-phenoxy)-but-2-enyl]-3-thiopropionic acid amide] | 26% | 
O=C(CCSCCCOc1ccc(Cl)c(Cl)c1)Nc1nn[nH]n1 [Example 4g, N--[(1H)-tetrazol-5-yl]-S--[3-(3,4-dichlorophenoxy)-propyl]-3-thiopropionic acid amide] | 75% | 
CCCc1c(OCCCSCCCCCc2nn[nH]n2)ccc(C(C)=O)c1O [Example 6a, 5-{S--[3-(4-acetyl-3-hydroxy-2-propylphenoxy)-propyl]-5-thiopentyl}-(1H)-tetrazole] | 70% | 
CCCc1c(OCCCSCCc2nn[nH]n2)ccc(C(C)=O)c1O [Example 6b, 5-{S--[3-(4-acetyl-3-hydroxy-2-propylphenoxy)-propyl]-2-thioethyl}-(1H)-tetrazole] | 55% | 
CCCCCc1ccccc1OCCCSCCc1nn[nH]n1 [Example 6c, 5-{S--[3-(2-pentylphenoxy)-propyl]-2-thioethyl}-(1H)-tetrazole] | 13% | 
C=CCc1c(OCCCSCCc2nn[nH]n2)ccc(C(C)=O)c1O [Example 6d, 5-{S--[3-(4-acetyl-3-hydroxy-2-allylphenoxy)-propyl]-2-thioethyl}-(1H)-tetrazole] |  | inhibition at 5 µg/mL [2]: 24%
CCCc1c(OCCCSCCSc2nn[nH]n2)ccc(C(C)=O)c1O [Example 7, {S-[3-(4-Acetyl-3-hydroxy-2-propylphenoxy)-propyl]-2-thioethyl}-5-mercapto-(1H)-tetrazole] | 29% | 
CCCCCC(O)c1cccc(OCCCSCCCC(=O)NO)c1 (stereo not shown) [Example 9a, N--hydroxy-S--[3-(3-{1-hydroxy-hexyl}-phenoxy)-propyl]-4-thiobutyric acid amide] | 11% | 
CCCCCC(O)c1cccc(OCC(O)CSCCCC(=O)NO)c1 (stereo not shown) [Example 9b, N--hydroxy-S--[3-(3-{1-hydroxy-hexyl}-phenoxy)-2-hydroxy-propyl]-4-thiobutyric acid amide] | 21% | 
CCCCCC(O)c1cccc(OCCCCSCCC(=O)NO)c1 (stereo not shown) [Example 9c, N--hydroxy-S--[4-(3-{1-hydroxy-hexyl}phenoxy)-butyl]-3-thiopropionic acid amide] | 27% | 
